The values below come from patent US6660283B2, “Use of cinnamic acid, or of at least one of its derivatives in a cosmetic composition” (Societe L'Oreal S.A., priority 1997, dated 2003).

The experiment deals with reconstructed human epidermis. As to the kind of experiment: Incorporation of 14C acetate into total lipids of reconstructed human epidermis (Skinethic). It is filed as cell-based. Conditions: for percentage of stimulation (incorporation of 14C acetate, lipid synthesis): relative to untreated cells = 100. As to the method:
The study is carried out by measuring the incorporation of carbon-14-labelled acetate in models of reconstructed human epidermis sold by the company Skinethic, in which the composition of total lipids is close to that of normal human epidermis.
The reconstructed human epidermis cultures are prepared according to the supplier's recommendations.
Cinnamic acid, at concentrations of 10^−5, 10^−6 and 10^−7 M, is placed in contact for 72 hours with reconstructed human epidermes after they have been cultured for 14 days under the conditions recommended by the supplier. The labelling with ^14C acetate (sodium [2-^14C]-acetate sold by Amersham, 59 mCi/mmol) is carried out 24 hours after placing the test product in contact with the culture, i.e. during the final 48 hours of culturing, at a rate of 0.5 μCi of ^14C acetate per culture.
At the end of culturing, after washing the epidermes with phosphate buffer (PBS), the epidermides are dissociated and the cells are lysed with 0.5M perchloric acid on ice. The lysates are then extracted with a methanol/chloroform mixture (2:1), centrifuged and the pellets obtained are extracted again under the same conditions as before. The lipids are separated out by addition of PBS and chloroform (Blight-Byer technique). The organic phase containing the lipids is taken off and the radioactive incorporated in this phase is determined by liquid scintillation. The organic phase is then dried under a stream of nitrogen. Thin layer plate chromatography on Merck K60 plates is carried out using, as eluent, a chloroform/methanol/water mixture (50/18/2.6) to separate the phospholipids, or a hexane/ether/acetic acid mixture (15/5.6/0.19) to separate the neutral lipids.
The plates are then autoradiographed for 24 hours and the chromatograms are analysed by densitometry using the One-D-Scan software from the company Scanalytics.
The results are evaluated relative to a control consisting of cells which have not been treated with cinnamic acid.
A positive control (10^−4 M trifluoperazine), which is known to stimulate lipid synthesis, and a negative control (10^−6 M retinoic acid), which is known to inhibit lipid synthesis, are introduced into the test as reference.

With `O=C(O)C=Cc1ccccc1` [cinnamic acid], the “percentage of stimulation (incorporation of 14C acetate, lipid synthesis)” value (“percentage of stimulation” for short) runs as follows: (10^−5 M, 72 hours contact) 113%; (10^−6 M, 72 hours contact) 109%; (10^−7 M, 72 hours contact) 124%. Also, under “reconstructed human epidermis, 10^−5 to 10^−7 M”, the “effect on incorporation of 14C acetate (lipid synthesis), in words” value is reported as “significantly stimulates”.
For `CC1=C(/C=C/C(C)=C/C=C/C(C)=C/C(=O)O)C(C)(C)CCC1` [retinoic acid, reference compound], the “percentage of stimulation” value (10^−6 M, 72 hours contact) is 82%.
In the case of `CN1CCN(CCCN2c3ccccc3Sc3ccc(C(F)(F)F)cc32)CC1` [trifluoroperazine, trifluoperazine, reference compound], the “percentage of stimulation” value (10^−4 M) amounted to 122%.
